The values below come from patent US20030225152A1, “3-(Arylamino)methylene-1, 3-dihydro-2h-indol-2-ones as kinase inhibitors” (priority 2001, published 2003).

For test [1], the system named is VEGF induced increases in intracellular calcium levels in HUVEC (human umbilical vein endothelial cells). Nature of the test: VEGF Stimulated Ca++ Signal in vitro (FLIPR). It is filed as cell-based. As to conditions: VEGF 5 ng/mL; for IC50: 0.01 to 10.0 μM. In short, it runs like this: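 HUVEC loaded with Fluo-4 (45 min, 37° C.), washed, then pre-incubated 30 min with compound (10 μM single dose or 0.01–10.0 μM; 0.1% DMSO) before 5 ng/mL VEGF. Fluorescence at 516 nm read by FLIPR; IC50 from % inhibition of max-min VEGF response.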

Test [2] addresses T1, cytoplasmic domain of the human VEGF receptor (VEGFR-2) (Homo sapiens, UniProt P35968).
T1 construct: The cytoplasmic domain of the human VEGF receptor (VEGFR-2) was expressed as a Histidine-tagged fusion protein; Histidine tag
Nature of the test: KDR Assay. As to conditions: His-VEGFR-2; 3.6 μM ATP. The test is classed as biochemical. In short, it runs like this: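 His-tagged human VEGFR-2 cytoplasmic domain from baculovirus-infected insect cells, acting on poly-Glu-Tyr (4:1)-coated plates with 3.6 μM ATP in Hepes pH 7.4 with MgCl2/MnCl2 and 5% final DMSO, 10 min at 25 °C. Phosphotyrosine detected by peroxidase-conjugated antibody ELISA at 492 nm; IC50 from blank-subtracted OD versus concentration.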

SMILES strings stand for the structures.

T1 sequence (P35968 786-1356): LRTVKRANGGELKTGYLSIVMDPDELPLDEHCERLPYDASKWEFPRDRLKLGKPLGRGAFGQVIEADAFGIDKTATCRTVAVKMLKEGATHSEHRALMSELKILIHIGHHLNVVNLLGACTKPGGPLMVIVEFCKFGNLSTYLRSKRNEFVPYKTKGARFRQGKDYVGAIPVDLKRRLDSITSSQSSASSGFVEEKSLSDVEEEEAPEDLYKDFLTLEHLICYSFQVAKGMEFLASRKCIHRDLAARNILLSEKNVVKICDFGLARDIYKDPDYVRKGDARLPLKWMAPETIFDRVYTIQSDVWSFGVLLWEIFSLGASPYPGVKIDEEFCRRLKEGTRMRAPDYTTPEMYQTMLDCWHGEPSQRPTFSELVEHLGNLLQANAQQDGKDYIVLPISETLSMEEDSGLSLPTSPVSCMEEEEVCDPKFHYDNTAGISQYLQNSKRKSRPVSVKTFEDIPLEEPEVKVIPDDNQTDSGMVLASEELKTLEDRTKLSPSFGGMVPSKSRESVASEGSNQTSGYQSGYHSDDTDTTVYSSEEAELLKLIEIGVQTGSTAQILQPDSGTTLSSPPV

In the case of `O=C1Nc2ccccc2C1=CNc1ccc(OCCCN2CCSCC2)cc1` [Example 225, 3-{[4-(3-Thiomorpholin-4-yl-propoxy)-phenylamino]-methylene}-1,3-dihydro-indol-2-one], the IC50 in test [1] was 560 nM; in test [1] (Homo sapiens) it was not above 1000 nM; in test [2] it was 290 nM. For the same compound, in test [1] (Homo sapiens), the inhibition at 10 µM came to 95.7%.
For `O=C1Nc2ccccc2C1=CNc1ccc(OCCCCN2CCSCC2)cc1` [Example 226, 3-{[4-(4-Thiomorpholin-4-yl-butoxy)-phenylamino]-methylene}-1,3-dihydro-indol-2-one], in that order: 700 nM, not above 1000 nM, 280 nM and 98%.
Regarding `Cc1cccc2c1C(=CNc1ccc(N3CCOCC3)cc1)C(=O)N2` [Example 227, 4-Methyl-3-[(4-morpholin-4-yl-phenylamino)-methylene]-1,3-dihydro-indol-2-one], the inhibition at 10 µM in test [1] (Homo sapiens) came to 85.9%. Half-maximal inhibition in test [2] (IC50) was put at 50 nM.
Taken in the same sequence, the figures for `O=C1Nc2cc(F)ccc2C1=CNc1ccc(N2CCOCC2)cc1` [Example 228, 6-Fluoro-3-[(4-morpholin-4-yl-phenylamino)-methylene]-1,3-dihydro-indol-2-one] were 97.2% and 80 nM.
Taken in the same sequence, the figures for `CN1CCN(c2ccc(NC=C3C(=O)Nc4cc(F)ccc43)cc2)CC1` [Example 230, 6-Fluoro-3-{[4-(4-methyl-piperazin-1-yl)-phenylamino]-methylene}-1,3-dihydro-indol-2-one] were 96.4% and 80 nM.
As to `CCN(CC)CCCOc1ccc(NC=C2C(=O)Nc3ccc(Cl)cc32)cc1` [Example 232, 5-Chloro-3-{[4-(3-diethylamino-propoxy)-phenylamino]-methylene}-1,3-dihydro-indol-2-one], the IC50 in test [1] was 860 nM; in test [1] (Homo sapiens) it was not above 1000 nM; in test [2], 160 nM. For the same compound, in test [1] (Homo sapiens), the inhibition at 10 µM came out at 97.1%.
In the case of `CCN(CC)CCCOc1ccc(NC=C2C(=O)Nc3ccc(F)cc32)cc1` [Example 233, 3-{[4-(3-Diethylamino-propoxy)-phenylamino]-methylene}-5-fluoro-1,3-dihydro-indol-2-one], in test [1] (Homo sapiens), the inhibition at 10 µM was determined as 96.9%. Besides, the IC50 in test [2] worked out at 190 nM.
Regarding `O=C1Nc2ccc([N+](=O)[O-])cc2C1=CNc1ccc(N2CCOCC2)cc1` [Example 236, 3-[(4-Morpholin-4-yl-phenylamino)-methylene]-5-nitro-1,3-dihydro-indol-2-one], in test [1] (Homo sapiens), the inhibition at 10 µM was 7.2%. In test [2], half-maximal inhibition (IC50) required 970 nM.
Taken in the same sequence, the figures for `N#Cc1ccc2c(c1)C(=CNc1ccc(N3CCOCC3)cc1)C(=O)N2` [Example 237, 3-[(4-Morpholin-4-yl-phenylamino)-methylene]-2-oxo-2 ,3-dihydro-1 h-indole-5-carbonitrile] were 36.4% and 710 nM.
For `O=C1Nc2ccc(F)cc2C1=CNc1ccc(OCCCN2CCCCC2)cc1` [Example 240, 5-Fluoro-3-{[4-(3-piperidin-1-yl-propoxy)-phenylamino]-methylene}-1,3-dihydro-indol-2-one], in that order: 98.3% and 230 nM.
For `O=C1Nc2ccc(Cl)cc2C1=CNc1ccc(OCCCN2CCCCC2)cc1` [Example 241, 5-Chloro-3-{[4-(3-piperidin-1-yl-propoxy)-phenylamino]-methylene}-1,3-dihydro-indol-2-one], in test [1] (Homo sapiens), the inhibition at 10 µM worked out at 95.8% and the IC50 amounted to 1010 nM. The same compound came in with an IC50 in test [2] of 130 nM.
For the compound `Cc1cccc2c1C(=CNc1ccc(NCCN3CCOCC3)cc1)C(=O)N2` [Example 242, 4-Methyl-3-{[4-(2-morpholin-4-yl-ethylamino)-phenylamino]-methylene}-1,3-dihydro-indol-2-one], the inhibition at 10 µM in test [1] (Homo sapiens) was determined as 95.8%. This compound also gave a 50% inhibitory concentration (IC50) in test [2] of 70 nM.
Taken in the same sequence, the figures for `O=C1Nc2ccc(F)cc2C1=CNc1ccc(NCCN2CCOCC2)cc1` [Example 244, 5-Fluoro-3-{[4-(2-morpholin-4-yl-ethylamino)-phenylamino]-methylene}-1,3-dihydro-indol-2-one] were 96% and 190 nM.
For `O=C1Nc2ccc(Cl)cc2C1=CNc1ccc(NCCN2CCOCC2)cc1` [Example 245, 5-Chloro-3-{[4-(2-morpholin-4-yl-ethylamino)-phenylamino]-methylene}-1,3-dihydro-indol-2-one], in that order: 95.5% and 140 nM.
For the compound `CCN(CC)CCCOc1ccc(NC=C2C(=O)Nc3ccccc32)cc1F` [Example 248, 3-{[4-(3-Diethylamino-propoxy)-3-fluoro-phenylamino]-methylene}-1,3-dihydro-indol-2-one], the results for the IC50 in test [1], in test [1] (Homo sapiens) and in test [2] were 710 nM, not above 1000 nM and 630 nM, respectively.
Turning to `O=C1Nc2cccc(F)c2C1=CNc1ccc(OCCCN2CCCCC2)cc1` [Example 255, 4-Fluoro-3-{[4-(3-piperidin-1-yl-propoxy)-phenylamino]-methylene}-1,3-dihydro-indol-2-one], the IC50 was determined as 1300 nM in test [1] (Homo sapiens) and 440 nM in test [2].
For `Cc1cccc2c1C(=CNc1ccc(CN3CCCCC3)cc1)C(=O)N2` [Example 256, 4-Methyl-3-[(4-piperidin-1-ylmethyl-phenylamino)-methylene]-1,3-dihydro-indol-2-one], the IC50 in test [1] is 670 nM; in test [1] (Homo sapiens), not above 1000 nM; in test [2] it was 190 nM.
`O=C1Nc2cccc(F)c2C1=CNc1ccc(CN2CCCCC2)cc1` [Example 257, 4-Fluoro-3-[(4-piperidin-1-ylmethyl-phenylamino)-methylene]-1,3-dihydro-indol-2-one]: the IC50 in test [1] (Homo sapiens) was 1630 nM; in test [2], 510 nM.
As to `O=C1Nc2ccc(F)cc2C1=CNc1ccc(CN2CCCCC2)cc1` [Example 258, 5-Fluoro-3-[(4-piperidin-1-ylmethyl-phenylamino)-methylene]-1,3-dihydro-indol-2-one], the IC50 was 720 nM in test [1], not above 1000 nM in test [1] (Homo sapiens) and 560 nM in test [2].
For the compound `O=C1Nc2ccc(Cl)cc2C1=CNc1ccc(CN2CCCCC2)cc1` [Example 260, 5-Chloro-3-[(4-piperidin-1-ylmethyl-phenylamino)-methylene]-1,3-dihydro-indol-2-one], the IC50 was 880 nM in test [1], not above 1000 nM in test [1] (Homo sapiens) and 300 nM in test [2].
With `O=C1Nc2cccc(F)c2C1=CNc1ccc(OCCN2CCCCC2)cc1` [Example 261, 4-Fluoro-3-{[4-(2-piperidin-1-yl-ethoxy)-phenylamino]-methylene}-1,3-dihydro-indol-2-one], the IC50 in test [1] (Homo sapiens) is 1060 nM; in test [2] it was 390 nM.
Regarding `O=C1Nc2ccc(Cl)cc2C1=CNc1ccc(OCCN2CCCCC2)cc1` [Example 262, 5-Chloro-3-{[4-(2-piperidin-1-yl-ethoxy)-phenylamino]-methylene}-1,3-dihydro-indol-2-one], the results for the IC50 in test [1], in test [1] (Homo sapiens) and in test [2] were 870 nM, not above 1000 nM and 210 nM, respectively.
For `CCN(CC)CCOc1ccc(NC=C2C(=O)Nc3ccccc32)cc1` [Example 265, 3-{[4-(2-Diethylamino-ethoxy)-phenylamino]-methylene}-1,3-dihydro-indol-2-one], in that order: 530 nM, not above 1000 nM and 610 nM.
